According to US9572911B2, “Method for decellularization of tissue grafts” (University of Florida Research Foundation, Inc., priority 2013, dated 2017):

Target: purified laminin-1 (Homo sapiens, UniProt P07942+P11047+P25391)
Test: Effects of individual detergents on the neurite-promoting activity of purified laminin
Format: cell-based
Settings: dialyzed, neurons 24 hours, FIG. 14
Experimental: FIG. 14. Effects of individual detergents on the neurite-promoting activity of purified laminin. Purified laminin-1 was mixed with individual detergents as follows: Control (buffer alone), sulfobetaine-10 (125 mM), sulfobetaine-16 (0.6 mM) and […] (0.14%). The mixtures were extensively dialyzed and then were added to tissue culture wells to form a substratum onto which dissociated neurons were seeded. After 24 hours in culture the length of neurites were measured. Data represent the specific activities (ED50) calculated from mean scores from dilution series performed in duplicates in 4 separate experiments
The extracellular matrix of nerve is known to promote the growth of axons. In particular, the basal lamina tubes encasing axons provides a potent stimulus for axonal growth in nerve regeneration. The cryoculture assay used in the experiments described above relies on the structure and growth-promoting activity of the basal lamina. It is well documented that laminin is the major neurite-promoting component of the nerve basal lamina. […] Therefore, tests were performed to examine the effects of individual detergents on purified laminin. Laminin activity was unchanged by SB-10. Exposure to SB-16 reduced laminin activity approximately 50%.

reduction of laminin activity (sulfobetaine-16 0.6 mM)	laminin neurite-promoting activity after exposure to detergent (SB-10 125 mM, SB-16 0.6 mM, Triton X-200 0.14%)	Structure (SMILES)
approximately 50%	–	CCCCCCCCCCCCCCCC[N+](C)(C)CCCS(=O)(=O)[O-] [SB-16, sulfobetaine-16]
–	unchanged	CCCCCCCCCC[N+](C)(C)CCCS(=O)(=O)[O-] [SB-10, sulfobetaine-10]
